# Laboratory results taken from PubChem BioAssay AID248 (DTP/NCI, 2004).
# Where “and” joins values, the source holds several entries; their conditions need not be identical. Equal entries are not always repeated. Inconclusive results and toxic doses are left out.
# Tested on: L1210 leukemia ip in BDF1 mice, survival T/C
# Assay: NCI In Vivo Anticancer Drug Screen. Data for tumor model L1210 Leukemia (intraperitoneal) in B6D2F1 (BDF1) mice
# Conditions: endpoint: mean survival time, higher = longer survival
# In short: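 Value reflects the ratio of survival in compound-treated mice to survival in vehicle-treated controls, with both groups carrying the same transplanted tumor.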
# [1] = dose: 100.0 mg/kg/injection, schedule: Q04DX003 (ip), vehicle: Klucel (hydroxypropylcellulose) (HPC)
# [2] = dose: 200.0 mg/kg/injection, schedule: Q04DX003 (ip), vehicle: Klucel (hydroxypropylcellulose) (HPC)
# [3] = dose: 400.0 mg/kg/injection, schedule: Q04DX003 (ip), vehicle: Klucel (hydroxypropylcellulose) (HPC)
# [4] = dose: 100.0 mg/kg/injection, schedule: Q01DX009 (ip), vehicle: saline with Tween-80
# [5] = dose: 200.0 mg/kg/injection, schedule: Q01DX009 (ip), vehicle: saline with Tween-80
# [6] = dose: 400.0 mg/kg/injection, schedule: Q01DX009 (ip), vehicle: saline with Tween-80
# [7] = dose: 100.0 mg/kg/injection, schedule: Q01DX001 (ip), vehicle: saline
# [8] = dose: 200.0 mg/kg/injection, schedule: Q01DX001 (ip), vehicle: saline
# [9] = dose: 400.0 mg/kg/injection, schedule: Q01DX001 (ip), vehicle: saline
# [10] = dose: 100.0 mg/kg/injection, schedule: Q04DX003 (ip), vehicle: saline with Tween-80
# [11] = dose: 200.0 mg/kg/injection, schedule: Q04DX003 (ip), vehicle: saline with Tween-80
# [12] = dose: 400.0 mg/kg/injection, schedule: Q04DX003 (ip), vehicle: saline with Tween-80
# [13] = dose: 50.0 mg/kg/injection, schedule: Q04DX003 (ip), vehicle: saline
# [14] = dose: 100.0 mg/kg/injection, schedule: Q04DX003 (ip), vehicle: saline
# [15] = dose: 100.0 mg/kg/injection, schedule: Q01DX001 (ip), vehicle: Klucel (hydroxypropylcellulose) (HPC)
# [16] = dose: 200.0 mg/kg/injection, schedule: Q01DX001 (ip), vehicle: Klucel (hydroxypropylcellulose) (HPC)
compound,measurement,setting,value
Oc1c(Br)cc(C(c2cc(Br)c(O)c(Br)c2)c2ccccn2)cc1Br,T/C,[1],104 % of control
same,T/C,[2],100 % of control
same,T/C,[3],104 % of control
O=C(/C(Br)=C/c1ccccc1)/C(Br)=C/c1ccccc1,T/C,"dose: 100.0 mg/kg/injection, schedule: Q01DX001 (ip), vehicle: saline sonified",97 % of control
same,T/C,[4],109 % of control
same,T/C,"dose: 200.0 mg/kg/injection, schedule: Q01DX001 (ip), vehicle: saline sonified",98 % of control
same,T/C,[5],93 % of control
same,T/C,"dose: 400.0 mg/kg/injection, schedule: Q01DX001 (ip), vehicle: saline sonified",93 % of control
same,T/C,[6],94 % of control
O=C(O)C1C(c2ccccc2)=C(c2ccccc2)C(c2ccccc2)=C(c2ccccc2)C1C(=O)O (stereo not drawn),T/C,"dose: 50.0 mg/kg/injection, schedule: Q01DX001 (ip), vehicle: carboxymethylcellulose (CMC)",89 % of control
same,T/C,"dose: 100.0 mg/kg/injection, schedule: Q01DX001 (ip), vehicle: carboxymethylcellulose (CMC)",92 % of control
CN(C(=O)N(CCCl)N=O)C1CCC(C(=O)O)CC1 (stereo not drawn),T/C,"dose: 12.0 mg/kg/injection, schedule: Q01DX009 (ip), vehicle: alkali diluted with saline",95 % of control
same,T/C,"dose: 18.0 mg/kg/injection, schedule: Q01DX009 (ip), vehicle: alkali diluted with saline",103 % of control
same,T/C,"dose: 24.0 mg/kg/injection, schedule: Q01DX001 (ip), vehicle: saline + Tween-80 + alkali",93 % of control
same,T/C,"dose: 26.0 mg/kg/injection, schedule: Q01DX009 (ip), vehicle: alkali diluted with saline",103 % of control
same,T/C,"dose: 36.0 mg/kg/injection, schedule: Q01DX001 (ip), vehicle: saline + Tween-80 + alkali",98 % of control
same,T/C,"dose: 40.0 mg/kg/injection, schedule: Q01DX009 (ip), vehicle: alkali diluted with saline",111 % of control
same,T/C,"dose: 54.0 mg/kg/injection, schedule: Q01DX001 (ip), vehicle: saline + Tween-80 + alkali",98 % of control
same,T/C,"dose: 60.0 mg/kg/injection, schedule: Q01DX009 (ip), vehicle: alkali diluted with saline",119 % of control
same,T/C,"dose: 80.0 mg/kg/injection, schedule: Q01DX001 (ip), vehicle: saline + Tween-80 + alkali",104 % of control
same,T/C,"dose: 120.0 mg/kg/injection, schedule: Q01DX001 (ip), vehicle: saline + Tween-80 + alkali",113 % of control
same,T/C,"dose: 180.0 mg/kg/injection, schedule: Q01DX001 (ip), vehicle: saline + Tween-80 + alkali",121 % of control
same,T/C,"dose: 400.0 mg/kg/injection, schedule: Q01DX001 (ip), vehicle: saline + Tween-80 + alkali",180 % of control
O=C(Nc1ccccc1Br)c1ccc(Cl)cc1Cl,T/C,"dose: 75.0 mg/kg/injection, schedule: Q01DX009 (ip), vehicle: Klucel (hydroxypropylcellulose) (HPC)",96 % of control
same,T/C,"dose: 100.0 mg/kg/injection, schedule: Q04DX002 (ip), vehicle: Klucel (hydroxypropylcellulose) (HPC)",93 % of control
same,T/C,"dose: 150.0 mg/kg/injection, schedule: Q01DX009 (ip), vehicle: Klucel (hydroxypropylcellulose) (HPC)",96 % of control
same,T/C,"dose: 200.0 mg/kg/injection, schedule: Q04DX002 (ip), vehicle: Klucel (hydroxypropylcellulose) (HPC)",107 % of control
same,T/C,"dose: 300.0 mg/kg/injection, schedule: Q01DX009 (ip), vehicle: Klucel (hydroxypropylcellulose) (HPC)",100 % of control
same,T/C,"dose: 400.0 mg/kg/injection, schedule: Q04DX002 (ip), vehicle: Klucel (hydroxypropylcellulose) (HPC)",97 % of control
CCCCCCCCCCCCSCCC(=O)O,T/C,[7],98 % of control
same,T/C,[8],95 % of control
same,T/C,[9],93 % of control
NC(=O)C1C2C=CC(CC2)C1C(N)=O (stereo not drawn),T/C,[10],91 % of control
same,T/C,[11],96 % of control
same,T/C,[12],91 % of control
CC(C)CCNc1ncnc2c1cnn2C,T/C,"dose: 25.0 mg/kg/injection, schedule: Q04DX003 (ip), vehicle: saline",97 % of control
same,T/C,[13],97 % of control
same,T/C,[14],102 % of control
COC(=O)C1CCC(NC(=O)NCCCl)CC1 (stereo not drawn),T/C,[15],95 % of control and 103 % of control
same,T/C,[16],93 % of control and 97 % of control
same,T/C,"dose: 400.0 mg/kg/injection, schedule: Q01DX001 (ip), vehicle: Klucel (hydroxypropylcellulose) (HPC)",95 % of control
O=C(Cc1ccccc1)c1ccc(O)cc1O,T/C,"dose: 50.0 mg/kg/injection, schedule: Q01DX001 (ip), vehicle: saline",104 % of control
same,T/C,[7],104 % of control
same,T/C,"dose: 100.0 mg/kg/injection, schedule: Q04DX003 (ip), vehicle: gum acacia",113 % of control
same,T/C,[8],102 % of control
same,T/C,"dose: 200.0 mg/kg/injection, schedule: Q04DX003 (ip), vehicle: gum acacia",98 % of control
same,T/C,[9],102 % of control
same,T/C,"dose: 400.0 mg/kg/injection, schedule: Q04DX003 (ip), vehicle: gum acacia",101 % of control
COC1=NCCCCC1,T/C,"dose: 50.0 mg/kg/injection, schedule: Q04DX003 (ip), vehicle: saline with Tween-80",94 % of control
same,T/C,[10],99 % of control
same,T/C,[11],91 % of control
CCCCCCCC(=O)Nc1cccc(OC(=O)NC)c1,T/C,[10],98 % of control
same,T/C,[11],94 % of control
same,T/C,[12],96 % of control
Nc1cc(NC(=O)c2ccc(Cl)cc2)ccc1S(=O)(=O)O,T/C,"dose: 100.0 mg/kg/injection, schedule: Q04DX002 (ip), vehicle: saline with Tween-80",104 % of control
same,T/C,"dose: 200.0 mg/kg/injection, schedule: Q04DX002 (ip), vehicle: saline with Tween-80",93 % of control
same,T/C,"dose: 400.0 mg/kg/injection, schedule: Q04DX002 (ip), vehicle: saline with Tween-80",93 % of control
COc1cc(C=NC(CO)C(=O)O)ccc1O.COc1cc(C=NC(CO)C(=O)O)ccc1O.[Fe] (stereo not drawn),T/C,"dose: 100.0 mg/kg/injection, schedule: Q01DX009 (ip), vehicle: saline",92 % of control
same,T/C,[14],88 % of control
same,T/C,"dose: 200.0 mg/kg/injection, schedule: Q01DX009 (ip), vehicle: saline",92 % of control
same,T/C,"dose: 200.0 mg/kg/injection, schedule: Q04DX003 (ip), vehicle: saline",95 % of control
same,T/C,"dose: 400.0 mg/kg/injection, schedule: Q01DX009 (ip), vehicle: saline",95 % of control
same,T/C,"dose: 400.0 mg/kg/injection, schedule: Q04DX003 (ip), vehicle: saline",93 % of control
CCc1ccc(/C=C\c2ccc(O)c(O)c2)[n+](C)c1,T/C,"dose: 15.0 mg/kg/injection, schedule: Q01DX001 (ip), vehicle: saline",87 % of control
same,T/C,"dose: 30.0 mg/kg/injection, schedule: Q01DX001 (ip), vehicle: saline",89 % of control
Cc1cc(Oc2nccnc2C)cc(C)c1N(C)C,T/C,[1],101 % of control
same,T/C,[2],94 % of control
same,T/C,[3],94 % of control
CCC1(O)C(=O)OCc2c1cc(C(=O)OC)n(C)c2=O (stereo not drawn),T/C,"dose: 25.0 mg/kg/injection, schedule: Q01DX001 (ip), vehicle: saline with Tween-80",97 % of control
same,T/C,"dose: 50.0 mg/kg/injection, schedule: Q01DX001 (ip), vehicle: saline with Tween-80",95 % of control
same,T/C,"dose: 100.0 mg/kg/injection, schedule: Q01DX001 (ip), vehicle: saline with Tween-80",97 % of control
same,T/C,"dose: 200.0 mg/kg/injection, schedule: Q01DX001 (ip), vehicle: saline with Tween-80",98 % of control
C=CC(=O)NC12CC3CC(CC(C3)C1)C2,T/C,[7],88 % of control
same,T/C,[4],104 % of control
same,T/C,[8],93 % of control
same,T/C,[5],97 % of control
same,T/C,[9],90 % of control
same,T/C,[6],101 % of control
CCOC(=O)c1ncc(Cl)cc1N,T/C,[15],106 % of control
same,T/C,[16],108 % of control
CCOC(=O)/C=C/C(=O)O.[Zn+2],T/C,"dose: 12.5 mg/kg/injection, schedule: Q04DX003 (ip), vehicle: saline",96 % of control and 91 % of control
same,T/C,[13],96 % of control
O=[N+]([O-])c1ccc(Sc2cccs2)c([N+](=O)[O-])c1,T/C,[4],97 % of control
same,T/C,[10],105 % of control
same,T/C,[5],100 % of control
same,T/C,[11],93 % of control
same,T/C,[6],102 % of control
same,T/C,[12],93 % of control
O=[N+]([O-])c1ccc(N2CCOCC2)cc1,T/C,[1],95 % of control
same,T/C,[2],100 % of control
same,T/C,[3],105 % of control
CCCC1CCCC(=O)N1 (stereo not drawn),T/C,"dose: 75.0 mg/kg/injection, schedule: Q01DX001 (ip), vehicle: saline",98 % of control
same,T/C,"dose: 150.0 mg/kg/injection, schedule: Q01DX001 (ip), vehicle: saline",98 % of control
